Source: patent US6514997B2, “Antipicornaviral compounds and compositions, their pharmaceutical uses, and materials for their synthesis” (Agouron Pharmaceuticals, Inc., priority 1999, dated 2003)
Like-named read-outs stand apart in the source and are kept apart here. Values belong to the molecule of their own block, whether it stands above or below them.

What was measured:
[1] = tested on: Coxsackievirus type A-21 (CAV-21); experiment: Anticoxsackieviral cell culture assay (XTT, EC50), CAV-21; format: cell-based, coxsackievirus A-21 in H1-HeLa cells; conditions: Coxsackievirus; CAV-21; read-out: EC50
Method: (§1) Anticoxsackieviral Cell Culture Assay:
(§2) Coxsackievirus types A-21 (CAV-21) and B3 (CVB3) were purchased from American Type Culture Collection (ATCC, Rockville, Md.). Virus stocks were propagated and antiviral assays were performed in H1-HeLa cells (ATCC). Cells were grown in minimal essential medium with 10% fetal bovine serum (Life Technologies, Gaithersburg, Md.). The ability of the compounds of this invention to protect cells against either CAV-21 or CVB3 infection was measured by the XTT dye reduction method. This method is described in Weislow et al., J. Natl. Cancer Inst. (1989), vol. 81, 577-586. H1-HeLa cells were infected with CAV-21 or CVB3 at a multiplicity of infection (m.o.i.) of 0.025 or 0.075, respectively, or mock-infected with medium only. H1-HeLa cells were plated at 4×10^4 cells per well in a 96-well plate and incubated with appropriate concentrations of the test compound. One day (CVB3) or two days (CAV-21) later, XTT/PMS was added to test plates and the amount of formazan produced was quantified spectrophotometrically at 450/650 nm. […] The therapeutic index (TI) was calculated by dividing the CC50 by the EC50.

[2] = target: T1, Recombinant rhinovirus 3C protease, serotype 14 (Human rhinovirus 14, UniProt P03303); experiment: Inhibition of rhinovirus 3C protease (FRET assay, kobs/[I]), serotype 14; format: biochemical; conditions: pH 7.6, read-out: kobs/[I] (3C protease inhibition activity)
T1 construct: Recombinant rhinovirus 3C proteases; made in house
T1 sequence (P03303 1538-1719): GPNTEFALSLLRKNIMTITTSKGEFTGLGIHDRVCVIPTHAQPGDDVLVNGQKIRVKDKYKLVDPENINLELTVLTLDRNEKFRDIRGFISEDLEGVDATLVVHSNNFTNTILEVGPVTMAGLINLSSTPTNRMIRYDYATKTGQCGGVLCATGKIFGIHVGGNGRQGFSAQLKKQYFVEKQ
Method in brief: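 Enzyme-start FRET assay with ~1 μM DABCYL/EDANS peptide substrate and 50-100 nM recombinant protease in 50 mM tris pH 7.6, 1 mM EDTA, 2% DMSO. Cleavage followed as fluorescence increase; kobs/[I] derived from progress curves.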

[3] = Cytotoxicity (CC50) in mock-infected H1-HeLa cells, XTT dye reduction; format: cell-based, human; conditions: human, H1-HeLa cells; for CC50 at 1 day: line of CVB3
Method in brief: (§3)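 H1-HeLa cells mock-infected, read by XTT/PMS formazan at 450/650 nm.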

[4] = tested on: Echovirus type 11 (ECHO 11); experiment: Anti-echoviral cell culture assay (XTT, EC50), ECHO 11; format: cell-based, echovirus 11 in MRC-5 cells; conditions: Enterovirus B; ECHO-11; read-out: EC50
Method: (§4) Anti-Echoviral and Anti-Enteroviral Cell Culture Assays
(§5) Echovirus type 11 (ECHO 11) was purchased from ATCC (Rockville, Md.). Virus stocks were propagated and antiviral assays were performed in MRC-5 cells (ATCC). Cells were grown in minimal essential medium with 10% fetal bovine serum (Life Technologies, Gaithersburg, Md.). The ability of the compounds of this invention to protect cells against ECHO 11 infection was measured by the XTT dye reduction method (Weislow et al., J. Natl. Cancer Inst. (1989), vol. 81, 577-586). MRC-5 cells were infected with ECHO 11 at an m.o.i. of 0.003 or 0.004, respectively, or mock-infected with medium only. Infected or uninfected cells were added at 1×10^4 cells per well and incubated with appropriate concentrations of compound. Four days later, XTT/PMS was added to test plates, and the amount of formazan produced was quantified spectrophotometrically at 450/650 nm. […] The therapeutic index (TI) was calculated by dividing the CC50 by the EC50. Activity of the compounds against enterovirus type 70 (EV 70) may be measured by the same assay as described above in this section. Enterovirus type 70 (EV 70) may be obtained from the American Type Culture Collection ATCC (Rockville, Md.).

[5] = tested on: enterovirus type 70 (EV 70); experiment: Anti-enteroviral cell culture assay (XTT, EC50), EV 70; format: cell-based, enterovirus 70 in MRC-5 cells; conditions: Enterovirus D; ENT-70
Method: as §4, §5

[6] = tested on: Coxsackievirus type B3 (CVB3); experiment: Anticoxsackieviral cell culture assay (XTT, EC50), CVB3; format: cell-based, coxsackievirus B3 in H1-HeLa cells; conditions: CVB3; read-out: EC50
Method: as §1, §2

MRC-5 cells = experiment: Cytotoxicity (CC50) in uninfected MRC-5 cells, XTT dye reduction; format: cell-based, human; conditions: line of ENT-70
Method: as §5

[7] = as above; format: cell-based, human; conditions: human, MRC-5 cells, uninfected (mock-infected); line of ECHO-11
Method: as §5

HRV-14 = experiment: Antirhinoviral H1-HeLa cell culture assay (XTT cell protection, EC50), HRV-14; format: cell-based, human rhinovirus (HRV) serotype-14 in H1-HeLa cells; conditions: Rhinovirus B, HRV14, H1-HeLa
Method in brief: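 H1-HeLa cells were infected with HRV-14 at m.o.i. 0.13, or mock-infected, and incubated with compound for two days. Cell protection was read by XTT/PMS formazan absorbance at 450/650 nm to give EC50. CC50 came from mock-infected cells, and TI = CC50/EC50.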

coxsackievirus B5 (CVB5) = experiment: Antiviral cell culture assay (EC50), coxsackievirus B5; format: cell-based; conditions: Enterovirus B
[8] = Cytotoxicity (CC50), cell line not stated; format: cell-based
[9] = tested on: strains of human rhinovirus (HRV); experiment: Antirhinoviral H1-HeLa cell culture assay (XTT cell protection, EC50), other HRV strains; format: cell-based, human rhinovirus in H1-HeLa cells; conditions: read-out: EC50
Method in brief: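 H1-HeLa cells infected, or mock-infected, were incubated with compounds for two days. Cell protection measured by XTT/PMS formazan absorbance at 450/650 nm; TI taken as CC50 divided by EC50.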

echovirus 9 (ECHO-9) = experiment: Antiviral cell culture assay (EC50), echovirus 9; format: cell-based; conditions: Enterovirus B; ECHO9
H1-HeLa cells = experiment: Cytotoxicity (CC50) in mock-infected H1-HeLa cells, XTT dye reduction; format: cell-based, human
Method in brief: as §3

coxsackievirus B2 (CVB2) = experiment: Antiviral cell culture assay (EC50), coxsackievirus B2; format: cell-based; conditions: Enterovirus B
[10] = uninfected (mock-infected), line of CAV-21

EC50 [1]: 1390 nM | kinact/KI ([2]; HRV-14): 329000 M⁻¹ s⁻¹ | EC50 [4]: 54 nM | EC50 [5]: 18 nM | EC50 [6]: 577 nM | EC50 (HRV-14; HRV-14, read-out: EC50): 16 nM
SMILES: CCOC(=O)/C=C\[C@H](CCC(N)=O)NC(=O)[C@H](Cc1ccccc1)n1cccc(NC(=O)c2cc(C)on2)c1=O [Compound 5, trans-(2′S,4S)-6-Carbamoyl-4-(2′-{3″-[(5′″-methylisoxazole-3′″-carbonyl)amino]-2″-oxo-2″H-pyridin-1″-yl}-3′-phenylpropionylamino)hex-2-enoic Acid Ethyl Ester]
CC50 at 2 days ([3]; mock-infected, line of HRV-14): > 10000 nM | CC50 at 2 days [3, 10]: > 10000 nM | CC50 at 1 day ([3]; uninfected (mock-infected)): > 10000 nM | CC50 (MRC-5 cells): > 10000 nM | CC50 at 4 days [7]: > 10000 nM

EC50 [1]: 1480 nM | kinact/KI ([2]; HRV-14): 114000 M⁻¹ s⁻¹ | EC50 [4]: 160 nM | EC50 [5]: 12 nM | EC50 [6]: 539 nM | EC50 (HRV-14; HRV-14, read-out: EC50): 33 nM
SMILES: CCOC(=O)/C=C/[C@H](CCC(N)=O)NC(=O)[C@H](Cc1ccccc1)n1cccc(NC(=O)OCc2ccccc2)c1=O [Compound 1, trans-(2′S,4S)-4-[2′-(3″-Benzyloxycarbonylamino-2″-oxo-2″H-pyridin-1″-yl)-3′-phenylpropionylamino]-6-carbamoylhex-2-enoic Acid Ethyl Ester]
CC50 at 2 days ([3]; mock-infected, line of HRV-14): 50100 nM | CC50 at 2 days [3, 10]: > 10000 nM | CC50 at 1 day ([3]; uninfected (mock-infected)): > 10000 nM | CC50 (MRC-5 cells): > 10000 nM | CC50 at 4 days [7]: > 10000 nM

SMILES: CC[C@@H](C(=O)N[C@H](/C=C/C(=O)OC1CCC1)C[C@@H]1CCNC1=O)n1cccc(NC(=O)c2cc(C)on2)c1=O [Compound 59, trans-(2′S,3′″″S,4S)-4-[2′-(3″-{[1′″-(5″″-Methylisoxazol-3″″-yl)methanoyl]amino}-2′″oxo-2′″H-pyridin-1′″-yl)butanoylamino]-5-(2′″″-oxopyrrolidin-3′″″-yl)pent-2-enoic Acid Cyclobutyl Ester]
EC50 (coxsackievirus B5 (CVB5)): 40 nM | CC50 ([8]; CVB2): > 10000 nM | CC50 ([8]; CVB5): > 10000 nM | CC50 ([8]; ECHO9): > 10000 nM | EC50 ([9]; H1-HeLa, HRV-1A): 84 nM | EC50 ([9]; H1-HeLa, HRV-2): 49 nM | EC50 ([9]; H1-HeLa, HRV-23): 37 nM | EC50 ([9]; Human rhinovirus sp., H1-HeLa, HRV-Hanks): 83 nM | EC50 ([9]; Human rhinovirus sp., HRV3, H1-HeLa, HRV-3): 33 nM | EC50 ([9]; Human rhinovirus sp., HRV9, H1-HeLa, HRV-9): 70 nM | EC50 ([9]; Human rhinovirus sp., HRV10, H1-HeLa, HRV-10): 58 nM | EC50 ([9]; Human rhinovirus sp., HRV11, H1-HeLa, HRV-11): 14 nM | EC50 ([9]; Human rhinovirus sp., HRV13, H1-HeLa, HRV-13): 12 nM | EC50 ([9]; Human rhinovirus sp., HRV16, H1-HeLa, HRV-16): 105 nM | EC50 ([9]; Human rhinovirus sp., HRV19, H1-HeLa, HRV-19): 44 nM | EC50 ([9]; Human rhinovirus sp., HRV25, H1-HeLa, HRV-25): 42 nM | EC50 ([9]; Human rhinovirus sp., HRV39, H1-HeLa, HRV-39): 122 nM | EC50 ([9]; Human rhinovirus sp., HRV78, H1-HeLa, HRV-78): 73 nM | kinact/KI ([2]; HRV-14 3C protease): 170000 M⁻¹ s⁻¹ | EC50 (echovirus 9 (ECHO-9)): 40 nM | CC50 at 2 days ([3]; mock-infected, HRV-14): > 10000 nM | CC50 (H1-HeLa cells; HRV-1A): > 10000 nM | CC50 (H1-HeLa cells; HRV-2): > 10000 nM | CC50 (H1-HeLa cells; HRV-3): > 10000 nM | CC50 (H1-HeLa cells; HRV-9): > 10000 nM | CC50 (H1-HeLa cells; HRV-10): > 10000 nM | CC50 (H1-HeLa cells; HRV-11): > 10000 nM | CC50 (H1-HeLa cells; HRV-13): > 10000 nM | CC50 (H1-HeLa cells; HRV-16): > 10000 nM | CC50 (H1-HeLa cells; HRV-19): > 10000 nM | CC50 (H1-HeLa cells; HRV-23): > 10000 nM | CC50 (H1-HeLa cells; HRV-25): > 10000 nM | CC50 (H1-HeLa cells; HRV-39): > 10000 nM | CC50 (H1-HeLa cells; HRV-78): > 10000 nM | CC50 (H1-HeLa cells; HRV-Hanks): > 10000 nM | EC50 (coxsackievirus B2 (CVB2)): 50 nM | EC50 (HRV-14): 20 nM

EC50 [1]: 4680 nM | kinact/KI ([2]; HRV-14): 37400 M⁻¹ s⁻¹ | EC50 [4]: 346 nM | EC50 [5]: 61 nM | EC50 [6]: 2500 nM | EC50 (HRV-14; HRV-14, read-out: EC50): 34 nM
SMILES: CCOC(=O)/C=C/[C@H](CCC(N)=O)NC(=O)[C@H](Cc1ccccc1)n1cccc(NC(=O)C2CCCC2)c1=O [Compound 6, trans-(2′S,4S)-6-Carbamoyl-4-{2′-[3″-cyclopentanecarbonylamino-2″-oxo-2″H-pyridin-1″-yl]-3′-phenylpropionylamino}hex-2-enoic Acid Ethyl Ester]
CC50 at 2 days ([3]; mock-infected, line of HRV-14): > 10000 nM | CC50 at 2 days [3, 10]: > 10000 nM | CC50 at 1 day ([3]; uninfected (mock-infected)): > 10000 nM | CC50 (MRC-5 cells): > 10000 nM | CC50 at 4 days [7]: > 10000 nM
